Reference: patent publication EP4691482A1, “LONG-ACTING CALCITONIN ANALOG” (Chengdu Aoda Biotechnology Co., Ltd., priority 2023, dated 2024)

What was measured:
in vivo = experiment: in vivo; parameters: species or system Macaca fascicularis; conditions: cynomolgus monkey, sc, 0.1 mg/kg
Experimental: Macaca fascicularis were used as experimental animals. A subcutaneous administration was performed at a dose of 0.1 mg/kg. Venous blood samples were collected before administration (0 h) and at 1 h, 2 h, 3 h, 4 h, 8 h, 12 h, 18 h, 24 h, 48 h, 96 h, 144 h, and 168 h post-administration. Plasma samples were separated by centrifugation. The plasma concentration of the compound in the plasma samples was determined using liquid chromatography-mass spectrometry.

[1] = biological target: T1, calcitonin receptors (CTR) (Homo sapiens, UniProt P30988); experiment: cAMP determination (HTRF, cAMP Dynamic 2 Kit) in cAMP Hunter HEK293-CT-R Gs cell line; type: cell-based; conditions: relative to Salmon Calcitonin = 100.0; HEK293 CT-R cAMP
T1 construct: expressed in transfected cells; host or cells: cAMP Hunter HEK293-CT-R Gs cell line (HEK293, stably transfected)
T1 sequence (P30988 25-474): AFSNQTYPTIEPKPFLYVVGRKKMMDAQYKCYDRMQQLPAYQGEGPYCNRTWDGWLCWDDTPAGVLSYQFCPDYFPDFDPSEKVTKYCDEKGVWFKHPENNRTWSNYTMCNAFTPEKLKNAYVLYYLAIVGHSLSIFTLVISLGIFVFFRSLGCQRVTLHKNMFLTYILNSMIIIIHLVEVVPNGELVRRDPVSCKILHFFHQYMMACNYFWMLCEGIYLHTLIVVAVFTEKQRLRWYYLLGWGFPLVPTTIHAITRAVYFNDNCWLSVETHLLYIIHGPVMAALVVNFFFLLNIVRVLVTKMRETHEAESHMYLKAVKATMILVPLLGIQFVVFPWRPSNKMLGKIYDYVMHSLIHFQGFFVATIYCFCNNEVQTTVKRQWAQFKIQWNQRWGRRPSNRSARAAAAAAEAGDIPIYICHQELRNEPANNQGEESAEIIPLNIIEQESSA

half-life (in vivo): 2.23 days
Relative Activity% [1]: 339.3%
Structure (SMILES): CC(C)C[C@H](NC(=O)[C@H](CCCCN)NC(=O)CNC(=O)[C@H](CC(C)C)NC(=O)[C@@H](NC(=O)[C@@H]1CSSC[C@H](N)C(=O)N[C@@H](CO)C(=O)N[C@@H](CC(N)=O)C(=O)N[C@@H](CC(C)C)C(=O)N[C@@H](CO)C(=O)N[C@@H]([C@@H](C)O)C(=O)N1)C(C)C)C(=O)N[C@@H](CO)C(=O)N[C@@H](CCC(N)=O)C(=O)N[C@@H](CCC(=O)O)C(=O)N[C@@H](CC(C)C)C(=O)N[C@@H](Cc1c[nH]cn1)C(=O)N[C@@H](CCCCNC(=O)COCCOCCOCCOCCOCCNC(=O)CC[C@H](NC(=O)CCCCCCCCCCCCCCCCCCC(=O)O)C(=O)O)C(=O)N[C@@H](CC(C)C)C(=O)N[C@@H](CCC(N)=O)C(=O)N[C@H](C(=O)N[C@@H](Cc1ccc(O)cc1)C(=O)N1CCC[C@H]1C(=O)N[C@@H](CCCNC(=N)N)C(=O)N[C@H](C(=O)N[C@@H](CC(N)=O)C(=O)N[C@H](C(=O)NCC(=O)N[C@@H](CO)C(=O)NCC(=O)N[C@H](C(=O)N1CCC[C@H]1C(N)=O)[C@@H](C)O)[C@@H](C)O)[C@@H](C)O)[C@@H](C)O [Compound 5, Cys-Ser-Asn-Leu-Ser-Thr-Cys-Val-Leu-Gly-Lys-Leu-Ser-Gln-Glu-Leu-His-Lys(PEG5CH2CO-γGlu-eicosanedioic acid)-Leu-Gln-Thr-Tyr-Pro-Arg-Thr-Asn-Thr-Gly-Ser-Gly-Thr-Pro-NH2]
